Test results taken from patent US20240016781A1, “TREATMENT OF KRAS MUTANT CANCERS” (MEI Pharma, Inc., priority 2020, published 2024).
Like-named read-outs stand apart in the source and are kept apart here.

Columns and labels:
Assay in all cases: 72-hour CellTiter-Glo 2.0 growth inhibition screen (single agent, 9x9 combination dose matrix);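 on Best CI Level: inhibition effect level at which the best CI was calculated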
Type in all cases: cell-based
AsPC-1 = system: AsPC-1;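 on Best CI Level: inhibition effect level at which the best CI was calculated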
Calu-1 = system: Calu-1;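 on Best CI Level: inhibition effect level at which the best CI was calculated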
Gp2D = system: Gp2D;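 on Best CI Level: inhibition effect level at which the best CI was calculated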
LS-513 = system: LS-513;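 on Best CI Level: inhibition effect level at which the best CI was calculated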
SW48 KRAS (G12D/+) = system: SW48 KRAS (G12D/+);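 on Best CI Level: inhibition effect level at which the best CI was calculated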
[1] = AsPC-1 (KRAS G12D), enhancer + MEI-522 (Voruciclib), 72 h;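 on Best CI Level: inhibition effect level at which the best CI was calculated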
[2] = AsPC-1, Pancreas, Additional Single Agent Responses (inhibition, % I), 72 h
[3] = AsPC-1, Pancreas, growth inhibition (GI), AUC, single agent, 72 h
[4] = enhancer combined with MEI-522 (Voruciclib), AsPC-1 (Pancreas), 72 hours, inhibition data
[5] = Calu-1 (KRAS G12C), enhancer + MEI-522 (Voruciclib), 72 h;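 on Best CI Level: inhibition effect level at which the best CI was calculated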
[6] = Calu-1, Lung, Additional Single Agent Responses (inhibition, % I), 72 h
[7] = Calu-1, Lung, growth inhibition (GI), AUC, single agent, 72 h
[8] = enhancer combined with MEI-522 (Voruciclib), Calu-1 (Lung), 72 hours, inhibition data
[9] = Gp2D (KRAS G12D), enhancer + MEI-522 (Voruciclib), 72 h;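 on Best CI Level: inhibition effect level at which the best CI was calculated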
[10] = Gp2D, Colorectal, Additional Single Agent Responses (inhibition, % I), 72 h
[11] = Gp2D, Colorectal, growth inhibition (GI), AUC, single agent, 72 h
[12] = enhancer combined with MEI-522 (Voruciclib), Gp2D (Colorectal), 72 hours, inhibition data
[13] = LS-513 (KRAS G12D), enhancer + MEI-522 (Voruciclib), 72 h;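 on Best CI Level: inhibition effect level at which the best CI was calculated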
[14] = LS-513, Colorectal, Additional Single Agent Responses (inhibition, % I), 72 h
[15] = LS-513, Colorectal, growth inhibition (GI), AUC, single agent, 72 h
[16] = enhancer combined with MEI-522 (Voruciclib), LS-513 (Colorectal), 72 hours, inhibition data
[17] = SW48 KRAS (G12D/+), Colorectal, Additional Single Agent Responses (inhibition, % I), 72 h
[18] = SW48 KRAS (G12D/+), Colorectal, growth inhibition (GI), AUC, single agent, 72 h
[19] = SW48 KRAS (G12D/+), enhancer + MEI-522 (Voruciclib), 72 h
[20] = enhancer combined with MEI-522 (Voruciclib), SW48 KRAS (G12D/+) (Colorectal), 72 hours, inhibition data
[21] = AsPC-1, Pancreas, growth inhibition (GI) curve, single agent, 72 h
[22] = Calu-1, Lung, growth inhibition (GI) curve, single agent, 72 h
[23] = Gp2D, Colorectal, growth inhibition (GI) curve, single agent, 72 h
[24] = LS-513, Colorectal, growth inhibition (GI) curve, single agent, 72 h

## C=CC(=O)N1CCN(c2nc(=O)n(-c3c(C)ccnc3C(C)C)c3nc(-c4c(O)cccc4F)c(F)cc23)[C@@H](C)C1 [AMG510]
AsPC-1; [1]
  Best CI: 0.47
  Bliss Volume: 2.91
  HSA volume: −3.63
  Loewe Volume: 0.38
  Synergy Score: 0.82
AsPC-1; [2]
  Response Area: 0.00
AsPC-1; [3]
  Response Area: 0.00
AsPC-1; Homo sapiens, ASPC1, AsPC-1, Pancreas, Additional Single Agent Responses (inhibition, % I), 72 h
  EC50: 3000 nM
AsPC-1; Homo sapiens, ASPC1, AsPC-1, Pancreas, Additional Single Agent Responses, 72 h, read-out: Max Response (% I)
  Emax: 6%
AsPC-1; Homo sapiens, ASPC1, AsPC-1, Pancreas, growth inhibition (GI), single agent, 72 h, read-out: Max Response (% GI)
  Emax: 8%
AsPC-1; [4]
  Best CI: 0.64
  Best CI Level: 20
  Bliss Volume: 1.95
  HSA volume: −2.52
  Loewe Volume: 0.26
  Synergy Score: 0.32
Calu-1; [5]
  Best CI: 0.80
  Bliss Volume: 2.90
  HSA volume: 2.88
  Loewe Volume: 2.66
  Synergy Score: 4.52
Calu-1; [6]
  Response Area: 1.72
Calu-1; [7]
  Response Area: 2.29
Calu-1; Homo sapiens, Calu-1, 72 h, Calu-1, Lung, Additional Single Agent Responses (inhibition, % I), 72 h
  EC50: 2.8 nM
Calu-1; Homo sapiens, Calu-1, 72 h, Calu-1, Lung, growth inhibition (GI) curve, single agent, 72 h
  EC50: 2.9 nM
Calu-1; Homo sapiens, Calu-1, Lung, Additional Single Agent Responses, 72 h, read-out: Max Response (% I)
  Emax: 37%
Calu-1; Homo sapiens, Calu-1, Lung, growth inhibition (GI), single agent, 72 h, read-out: Max Response (% GI)
  Emax: 48%
Calu-1; [8]
  Best CI: 0.72
  Best CI Level: 55
  Bliss Volume: −0.15
  HSA volume: 1.55
  Loewe Volume: 1.28
  Synergy Score: 1.42
Gp2D; GP2d, 72 h, Colorectal, Additional Single Agent Responses (inhibition, % I)
  EC50: 2560 nM
Gp2D; GP2d, 72 h, Colorectal, growth inhibition (GI) curve, single agent
  EC50: 2550 nM
Gp2D; [9]
  Best CI: 0.47
  Bliss Volume: 1.60
  HSA volume: −1.47
  Loewe Volume: 1.40
  Synergy Score: 2.14
Gp2D; [10]
  Response Area: 0.42
Gp2D; Gp2D, Colorectal, Additional Single Agent Responses, 72 h, read-out: Max Response (% I)
  Emax: 13%
Gp2D; [11]
  Response Area: 0.55
Gp2D; Gp2D, Colorectal, growth inhibition (GI), single agent, 72 h, read-out: Max Response (% GI)
  Emax: 18%
Gp2D; [12]
  Best CI: 0.90
  Best CI Level: 20
  Bliss Volume: 0.54
  HSA volume: −1.21
  Loewe Volume: 0.47
  Synergy Score: 0.43
LS-513; Homo sapiens, LS-513, 72 h, LS-513, Colorectal, Additional Single Agent Responses (inhibition, % I), 72 h
  EC50: 321 nM
LS-513; Homo sapiens, LS-513, 72 h, LS-513, Colorectal, growth inhibition (GI) curve, single agent, 72 h
  EC50: 320 nM
LS-513; Homo sapiens, LS-513, Colorectal, Additional Single Agent Responses, 72 h, read-out: Max Response (% I)
  Emax: 3%
LS-513; Homo sapiens, LS-513, Colorectal, growth inhibition (GI), single agent, 72 h, read-out: Max Response (% GI)
  Emax: 4%
LS-513; [13]
  Best CI: 0.70
  Bliss Volume: 0.20
  HSA volume: −2.06
  Loewe Volume: −0.76
  Synergy Score: 1.51
LS-513; [14]
  Response Area: −0.19
LS-513; [15]
  Response Area: −0.23
LS-513; [16]
  Best CI: 0.82
  Best CI Level: 20
  Bliss Volume: −0.02
  HSA volume: −1.47
  Loewe Volume: −0.89
  Synergy Score: 0.37
SW48 KRAS (G12D/+)
  Bliss Volume: −0.98
SW48 KRAS (G12D/+); Homo sapiens, SW48, 72 h
  EC50: 3000 nM
SW48 KRAS (G12D/+); Homo sapiens, SW48, 72 h, read-out: Max Response (% GI)
  Emax: 15%
SW48 KRAS (G12D/+); Homo sapiens, SW48, 72 h, read-out: Max Response (% I)
  Emax: 11%
SW48 KRAS (G12D/+); [17]
  Response Area: 0.00
SW48 KRAS (G12D/+); [18]
  Response Area: 0.00
SW48 KRAS (G12D/+); [19]
  Best CI: 0.55
  Bliss Volume: 0.17
  Loewe Volume: 0.13
  Synergy Score: 2.74
SW48 KRAS (G12D/+); [20]
  Best CI: 1.38
  Loewe Volume: −0.76
  Synergy Score: 0.86
SW48 KRAS (G12D/+); enhancer combined with MEI-522 (Voruciclib), SW48 KRAS (G12D/+) (Colorectal), 72 hours, inhibition data, unit assumed
  Best CI Level: 20%

## CN1CC[C@@H](c2c(O)cc(O)c3c(=O)cc(-c4ccc(C(F)(F)F)cc4Cl)oc23)[C@@H]1CO [MEI-522(Voruciclib)]
AsPC-1; [2]
  EC50: 1330 nM
  IC50: 2320 nM
  Response Area: 1.96
AsPC-1; AsPC-1, Pancreas, Additional Single Agent Responses, 72 h
  Max Response (% I): 68 % I
AsPC-1; [21]
  EC50: 1350 nM
  GI50: 1340 nM
AsPC-1; [3]
  Response Area: 2.86
AsPC-1; AsPC-1, Pancreas, growth inhibition (GI), single agent, 72 h
  Max Response (% GI): 99 % GI
Calu-1; [6]
  EC50: 1860 nM
  IC50: 1980 nM
  Response Area: 2.48
Calu-1; Calu-1, Lung, Additional Single Agent Responses, 72 h
  Max Response (% I): 90 % I
Calu-1; [22]
  EC50: 2070 nM
  GI50: 1680 nM
Calu-1; [7]
  Response Area: 4.35
Calu-1; Calu-1, Lung, growth inhibition (GI), single agent, 72 h
  Max Response (% GI): 159 % GI
Gp2D; [10]
  EC50: 747 nM
  IC50: 791 nM
  Response Area: 2.94
Gp2D; Gp2D, Colorectal, Additional Single Agent Responses, 72 h
  Max Response (% I): 94 % I
Gp2D; [23]
  EC50: 1170 nM
  GI50: 695 nM
Gp2D; [11]
  Response Area: 5.14
Gp2D; Gp2D, Colorectal, growth inhibition (GI), single agent, 72 h
  Max Response (% GI): 176 % GI
LS-513; [14]
  EC50: 549 nM
  IC50: 633 nM
  Response Area: 2.94
LS-513; LS-513, Colorectal, Additional Single Agent Responses, 72 h
  Max Response (% I): 90 % I
LS-513; [24]
  EC50: 878 nM
  GI50: 529 nM
LS-513; [15]
  Response Area: 4.51
LS-513; LS-513, Colorectal, growth inhibition (GI), single agent, 72 h
  Max Response (% GI): 147 % GI
SW48 KRAS (G12D/+); [17]
  IC50: 572 nM
  Response Area: 2.81
SW48 KRAS (G12D/+); SW48 KRAS (G12D/+), Colorectal, Additional Single Agent Responses (inhibition, % I), 72 h, read-out: EC50
  EC50: 463 nM
SW48 KRAS (G12D/+); SW48 KRAS (G12D/+), Colorectal, Additional Single Agent Responses, 72 h
  Max Response (% I): 84 % I
SW48 KRAS (G12D/+); SW48 KRAS (G12D/+), Colorectal, growth inhibition (GI) curve, single agent, 72 h
  GI50: 428 nM
SW48 KRAS (G12D/+); SW48 KRAS (G12D/+), Colorectal, growth inhibition (GI) curve, single agent, 72 h, read-out: EC50
  EC50: 541 nM
SW48 KRAS (G12D/+); [18]
  Response Area: 4.36
SW48 KRAS (G12D/+); SW48 KRAS (G12D/+), Colorectal, growth inhibition (GI), single agent, 72 h
  Max Response (% GI): 139 % GI
